# “And” between values parts separate entries of the source, which are not always exact repeats. Identical values can stand only once. The source made the active and inactive calls. The rule behind the calls is not given here.
# Test system: rodent lifetime carcinogenesis bioassay, tumor incidence TD50
# Assay: carcinogenic potency in animals, long-term in vivo studies, CPDB compilation (AID 1745844)
smiles,measurement,setting,value
COc1ccc(N)c(C)c1,TD50,"mouse, strain B6C3F1, females, by gavage, site: any site (literature study), lesion: several types, types named in the paper, dosed 53 weeks, study length 93 weeks",69.2 mg/kg/day
same,TD50,"mouse, strain B6C3F1, females, by gavage, site: liver, lesion: hepatocellular adenoma + hepatocellular carcinoma + neoplastic nodule, dosed 53 weeks, study length 93 weeks",206 mg/kg/day
same,TD50,"mouse, strain B6C3F1, females, by gavage, site: liver, lesion: hepatocellular adenoma + hepatocellular carcinoma, dosed 53 weeks, study length 93 weeks",206 mg/kg/day (inactive)
same,TD50,"mouse, strain B6C3F1, females, by gavage, site: lung, lesion: alveolar/bronchiolar adenoma + alveolar/bronchiolar carcinoma, dosed 53 weeks, study length 93 weeks",250 mg/kg/day
same,TD50,"mouse, strain B6C3F1, males, by gavage, site: any site (literature study), lesion: several types, types named in the paper, dosed 53 weeks, study length 93 weeks",72.2 mg/kg/day
same,TD50,"rat, strain Fischer 344, females, by gavage, site: any site (literature study), lesion: several types, types named in the paper, dosed 77 weeks, study length 109 weeks",51.5 mg/kg/day
same,TD50,"rat, strain Fischer 344, females, by gavage, site: liver, lesion: hepatocellular adenoma + hepatocellular carcinoma + neoplastic nodule, dosed 77 weeks, study length 109 weeks",1100 mg/kg/day
same,TD50,"rat, strain Fischer 344, females, by gavage, site: mammary gland, lesion: fibroadenoma, dosed 77 weeks, study length 109 weeks",52.7 mg/kg/day
same,TD50,"rat, strain Fischer 344, females, by gavage, site: urinary bladder, lesion: transitional-cell carcinoma, dosed 77 weeks, study length 109 weeks",769 mg/kg/day
same,TD50,"rat, strain Fischer 344, males, by gavage, site: any site (literature study), lesion: several types, types named in the paper, dosed 77 weeks, study length 109 weeks",368 mg/kg/day
same,TD50,"rat, strain Fischer 344, males, by gavage, site: liver, lesion: hepatocellular adenoma + hepatocellular carcinoma + neoplastic nodule, dosed 77 weeks, study length 109 weeks",506 mg/kg/day
same,TD50,"rat, strain Fischer 344, males, by gavage, site: urinary bladder, lesion: transitional-cell carcinoma, dosed 77 weeks, study length 109 weeks",470 mg/kg/day
CCN(CC)C(=S)[S-].CCN(CC)C(=S)[S-].[Zn+2],carcinogen call,"mouse, strain B6AKF1, females, oral dosing, site: any site (literature study), lesion: several types, types named in the paper, dosed 76 weeks, study length 76 weeks",negative (inactive)
same,carcinogen call,"mouse, strain B6AKF1, females, oral dosing, site: liver, lesion: hepatoma, dosed 76 weeks, study length 76 weeks",negative (inactive)
same,carcinogen call,"mouse, strain B6AKF1, females, oral dosing, site: lung, lesion: adenoma, dosed 76 weeks, study length 76 weeks",negative (inactive)
same,TD50,"mouse, strain B6AKF1, males, oral dosing, site: any site (literature study), lesion: several types, types named in the paper, dosed 76 weeks, study length 76 weeks",86.7 mg/kg/day (inactive)
same,TD50,"mouse, strain B6AKF1, males, oral dosing, site: liver, lesion: hepatoma, dosed 76 weeks, study length 76 weeks",205 mg/kg/day (inactive)
same,carcinogen call,"mouse, strain B6AKF1, males, oral dosing, site: lung, lesion: adenoma, dosed 76 weeks, study length 76 weeks",negative (inactive)
same,carcinogen call,"mouse, strain B6C3F1, females, oral dosing, site: any site (literature study), lesion: one or several types, types not named, dosed 76 weeks, study length 76 weeks",negative (inactive)
same,carcinogen call,"mouse, strain B6C3F1, females, oral dosing, site: liver, lesion: hepatoma, dosed 76 weeks, study length 76 weeks",negative (inactive)
same,carcinogen call,"mouse, strain B6C3F1, females, oral dosing, site: lung, lesion: several types, types named in the paper, dosed 76 weeks, study length 76 weeks",negative (inactive)
same,TD50,"mouse, strain B6C3F1, males, oral dosing, site: any site (literature study), lesion: several types, types named in the paper, dosed 76 weeks, study length 76 weeks",28.5 mg/kg/day (inactive)
same,carcinogen call,"mouse, strain B6C3F1, males, oral dosing, site: liver, lesion: hepatoma, dosed 76 weeks, study length 76 weeks",negative (inactive)
same,TD50,"mouse, strain B6C3F1, males, oral dosing, site: lung, lesion: adenoma, dosed 76 weeks, study length 76 weeks",46.2 mg/kg/day (inactive)
O=C1CN(N=Cc2ccc([N+](=O)[O-])o2)C(=O)N1,TD50,"mouse, strain B6C3F1, females, in feed, site: cervix uteri, lesion: leiomyosarcoma, dosed 64 weeks, study length 64 weeks",4000 mg/kg/day (inactive)
same,TD50,"mouse, strain B6C3F1, females, in feed, site: liver, lesion: hepatocellular adenoma + hepatocellular carcinoma + neoplastic nodule, dosed 103 weeks, study length 105 weeks",2330 mg/kg/day
same,TD50,"mouse, strain B6C3F1, females, in feed, site: ovary, lesion: granulosa-cell tumor, benign + granulosa-cell tumor, malignant + mixed tumor, benign + tubular adenoma, dosed 103 weeks, study length 105 weeks",866 mg/kg/day
same,TD50,"mouse, strain B6C3F1, females, in feed, site: ovary, lesion: granulosa-cell tumor, benign + granulosa-cell tumor, malignant, dosed 103 weeks, study length 105 weeks",2560 mg/kg/day
same,TD50,"mouse, strain B6C3F1, females, in feed, site: ovary, lesion: granulosa-cell tumor, benign, dosed 103 weeks, study length 105 weeks",8470 mg/kg/day
same,TD50,"mouse, strain B6C3F1, females, in feed, site: ovary, lesion: granulosa-cell tumor, dosed 64 weeks, study length 64 weeks",4020 mg/kg/day (inactive)
same,TD50,"mouse, strain B6C3F1, females, in feed, site: ovary, lesion: mixed tumor, benign + tubular adenoma, dosed 103 weeks, study length 105 weeks",1400 mg/kg/day
same,TD50,"mouse, strain B6C3F1, females, in feed, site: ovary, lesion: mixed tumor, benign, dosed 103 weeks, study length 105 weeks",3380 mg/kg/day
same,TD50,"mouse, strain B6C3F1, females, in feed, site: ovary, lesion: tubular adenoma, dosed 103 weeks, study length 105 weeks",2530 mg/kg/day
same,carcinogen call,"mouse, strain B6C3F1, males, in feed, site: any site (literature study), lesion: several types, types named in the paper, dosed 103 weeks, study length 105 weeks",negative (inactive)
same,carcinogen call,"mouse, strain BDF1, females, in feed, site: any site (literature study), lesion: several types, types named in the paper, dosed 104 weeks, study length 104 weeks",negative (inactive)
same,carcinogen call,"mouse, strain BDF1, females, in feed, site: liver, lesion: hemangioma, dosed 104 weeks, study length 104 weeks",negative (inactive)
same,carcinogen call,"mouse, strain BDF1, females, in feed, site: lung, lesion: adenocarcinoma, dosed 104 weeks, study length 104 weeks",negative (inactive)
same,carcinogen call,"mouse, strain BDF1, males, in feed, site: any site (literature study), lesion: several types, types named in the paper, dosed 104 weeks, study length 104 weeks",negative (inactive)
same,carcinogen call,"mouse, strain BDF1, males, in feed, site: liver, lesion: adenoma, dosed 104 weeks, study length 104 weeks",negative (inactive)
same,carcinogen call,"mouse, strain BDF1, males, in feed, site: liver, lesion: hemangioma, dosed 104 weeks, study length 104 weeks",negative (inactive)
same,TD50,"mouse, strain BDF1, males, in feed, site: lung, lesion: adenoma, dosed 104 weeks, study length 104 weeks",53900 mg/kg/day (inactive)
same,TD50,"mouse, strain Charles River CD1, females, in feed, site: liver, lesion: hemangioma, dosed 93 weeks, study length 100 weeks",4460 mg/kg/day (inactive)
same,carcinogen call,"mouse, strain Charles River CD1, females, in feed, site: liver, lesion: hemangiosarcoma, dosed 93 weeks, study length 100 weeks",negative (inactive)
same,carcinogen call,"mouse, strain Charles River CD1, females, in feed, site: liver, lesion: hepatocellular adenoma, dosed 93 weeks, study length 100 weeks",negative (inactive)
same,carcinogen call,"mouse, strain Charles River CD1, females, in feed, site: lung, lesion: alveolar-cell adenoma, dosed 93 weeks, study length 100 weeks",negative (inactive)
same,carcinogen call,"mouse, strain Charles River CD1, females, in feed, site: lung, lesion: alveolar-cell carcinoma, dosed 93 weeks, study length 100 weeks",negative (inactive)
same,TD50,"mouse, strain Charles River CD1, males, in feed, site: all sites, lesion: myeloid leukemia, dosed 93 weeks, study length 100 weeks",588 mg/kg/day (inactive)
same,carcinogen call,"mouse, strain Charles River CD1, males, in feed, site: liver, lesion: hemangiosarcoma, dosed 93 weeks, study length 100 weeks",negative (inactive)
same,TD50,"mouse, strain Charles River CD1, males, in feed, site: liver, lesion: hepatocellular adenoma, dosed 93 weeks, study length 100 weeks",1200 mg/kg/day (inactive)
same,carcinogen call,"mouse, strain Charles River CD1, males, in feed, site: liver, lesion: hepatocellular carcinoma, dosed 93 weeks, study length 100 weeks",negative (inactive)
same,TD50,"mouse, strain Charles River CD1, males, in feed, site: lung, lesion: alveolar-cell adenoma, dosed 93 weeks, study length 100 weeks",833 mg/kg/day (inactive)
same,TD50,"mouse, strain Charles River CD1, males, in feed, site: lung, lesion: alveolar-cell carcinoma, dosed 93 weeks, study length 100 weeks",17000 mg/kg/day (inactive)
same,carcinogen call,"rat, strain Charles River CD (Sprague-Dawley), females, in feed, site: any site (literature study), lesion: malignant tumor, dosed 104 weeks, study length 104 weeks",negative (inactive)
same,carcinogen call,"rat, strain Charles River CD (Sprague-Dawley), females, in feed, site: any site (literature study), lesion: one or several types, types not named, dosed 104 weeks, study length 104 weeks",negative (inactive)
same,carcinogen call,"rat, strain Charles River CD (Sprague-Dawley), females, in feed, site: mammary gland, lesion: several types, types named in the paper, dosed 104 weeks, study length 104 weeks",negative (inactive)
same,TD50,"rat, strain Charles River CD (Sprague-Dawley), males, in feed, site: any site (literature study), lesion: malignant tumor, dosed 104 weeks, study length 104 weeks",1200 mg/kg/day (inactive)
same,carcinogen call,"rat, strain Charles River CD (Sprague-Dawley), males, in feed, site: any site (literature study), lesion: one or several types, types not named, dosed 104 weeks, study length 104 weeks",negative (inactive)
same,TD50,"rat, strain Charles River CD (Sprague-Dawley), males, in feed, site: mammary gland, lesion: fibroadenoma, dosed 104 weeks, study length 104 weeks",878 mg/kg/day (inactive)
same,TD50,"rat, strain Fischer 344, females, in feed, site: clitoral gland, lesion: adenoma, dosed 103 weeks, study length 105 weeks",93.7 mg/kg/day (inactive)
same,TD50,"rat, strain Fischer 344, males, in feed, site: kidney, lesion: tubule adenoma + tubule carcinoma, dosed 103 weeks, study length 105 weeks",163 mg/kg/day and 698 mg/kg/day
same,TD50,"rat, strain Fischer 344, males, in feed, site: liver, lesion: hepatocellular adenoma + hepatocellular carcinoma + neoplastic nodule, dosed 103 weeks, study length 105 weeks",332 mg/kg/day
same,TD50,"rat, strain Fischer 344, males, in feed, site: subcutaneous tissue, lesion: fibroma, dosed 103 weeks, study length 105 weeks",303 mg/kg/day
same,carcinogen call,"rat, strain Fischer 344, males, in feed, site: urinary bladder, lesion: one or several types, types not named, dosed 104 weeks, study length 104 weeks",negative (inactive)
same,TD50,"rat, strain Holtzman albino (Sprague-Dawley derived), females, in feed, site: mammary gland, lesion: fibroadenoma, dosed 36 weeks, study length 54 weeks",120 mg/kg/day (inactive)
same,TD50,"rat, strain Holtzman albino (Sprague-Dawley derived), females, in feed, site: mammary tissue, wider than the gland, lesion: one or several types, types not named, dosed 44 weeks, study length 60 weeks",214 mg/kg/day (inactive)
same,TD50,"rat, strain Sprague-Dawley, females, in feed, site: any site (literature study), lesion: several types, types named in the paper, dosed 75 weeks, study length 80 weeks",185 mg/kg/day (inactive)
same,TD50,"rat, strain Sprague-Dawley, females, in feed, site: any site (literature study), lesion: several types, types named in the paper, dosed 104 weeks, study length 104 weeks",64.2 mg/kg/day
same,TD50,"rat, strain Sprague-Dawley, females, in feed, site: mammary gland, lesion: fibroadenoma, dosed 104 weeks, study length 104 weeks",54.3 mg/kg/day
OCCN(CCO)c1nc(-c2cccs2)nc2ccccc12,TD50,"rat, strain Sprague-Dawley, females, in feed, site: any site (literature study), lesion: several types, types named in the paper, dosed 46 weeks, study length 66 weeks",60.1 mg/kg/day
